Test results from patent publication US20260159854A1, “NOVEL CARRIERS FOR NUCLEIC ACID AND/OR PROTEIN DELIVERY” (LUDWIG-MAXIMILIANS-UNIVERSITÄT MÜNCHEN, priority 2022, published 2026).

What was measured:
N2a cells [1] = assay: Luciferase expression assay of pDNA polyplexes in N2a cells; type: cell-based, murine; conditions: for transfection efficiency (luciferase expression) of pDNA polyplexes: 24 h, standard pDNA dose 200 ng/well, compared with LPEI N/P 6; for dose dependence of pDNA transfection efficiency: dose titration 200, 100, 50, 26, 14 ng pCMVLuc/well
[2] = Particle size, polydispersity and zeta potential measurement (DLS, ELS); type: physicochemical; design: Zeta / Size: unit not given here
Description: 6.6 Particle Size and Zeta Potential Measurement for pDNA, mRNA, siRNA, Cas9 mRNA/sgRNA and Cas9 mRNA/sgRNA/ssDNA Polyplexes as Well as mRNA LNPs
Measurements of size and zeta potential were performed with a Zetasizer Nano ZS (Malvern Instruments, Malvern, Worcestershire, U.K.) in a folded capillary cell (DTS1070) by dynamic and electrophoretic laser-light scattering (DLS, ELS). […] Samples were measured three times with six sub runs per measurement. For measurement of the zeta potential, all samples were diluted to 800 μL with HBG or HEPES (for siRNA polyplexes) directly before measurement. Parameters were identical to the size measurement apart from an equilibration time of 60 sec. Three measurements with 15 sub runs lasting 10 sec each were performed, and zeta potentials were calculated by the Smuchowski equation.

HeLa cells = assay: CellTiterGlo assay (relative metabolic activity); type: cell-based; conditions: for toxicity (relative metabolic activity, CellTiter Glo): pDNA polyplexes 200 ng/well, 24 h, vs non-reducible analogs
Description: HeLa cells were seeded 24 h prior to transfection (5000 cells/well) in 96-well plates. Immediately prior to transfection, the medium was replaced with suitable amounts of fresh medium containing 10% (v/v) FBS to reach a final volume of 100 μL during transfection. The nanoparticles were prepared as described in section 6.1 and transfected with indicated doses. The medium was removed at 24 h after transfection, and 25 μL of fresh, pre-warmed medium as well as 25 μL of CellTiterGlo® Reagent (Promega, Mannheim, Germany) were added to each well [S. Berger et al., Biomacromolecules 2021, 22, 1282; A. Krhač Levačić et al., J Controlled Release 2021, 339, 27]. After incubation on an orbital shaker for 30 min at RT, luminescence was recorded using a Centro LB 960 plate reader luminometer (Berthold Technologies, Bad Wildbad, Germany). The luminescent signals (in RLU) of the samples were normalized to the luminescent signal of the negative control (HBG buffer-treated control cells). Results were presented as relative metabolic activity related to the negative control. Experiments were performed as triplicates.

[3] = tested on: N2a tumor-bearing A/J mice; assay: Ex vivo luciferase expression after intravenous injection of mRNA polyplexes; type: in vivo
Description: Neuro2a cells (10^6 cells/150 μL PBS) were inoculated subcutaneously into the left flank of 6-week-old female A/J mice (Envigo RMS GmbH, Dusseldorf, Germany). Mice were randomly divided into groups of three (in the case of mRNA LNPs) or five (in the case of mRNA polyplexes) and were housed in isolated ventilated cages under specific pathogen free conditions with a 12 h day/night interval, and food and water ad libitum. Weight and general well-being were monitored continuously. Tumor size was measured with a caliper and determined by formula: a*b^2/2 (a=longest side of the tumor; b=widest side vertical to a). When tumors reached a size of 250-500 mm3, the experiments were performed by intravenous tail vein injection of polyplexes or LNPs formed as described in 6.1 and 6.3, containing 1 μg, 3 μg or 10 μg of stabilized firefly luciferase encoding mRNA (CleanCap™ FLuc mRNA (5moU); Trilink Biotechnologies, San Diego, CA, USA) in 150 μL HBG. Polyplexes containing 10 μg mRNA were dialyzed for 1 h at 4° C. against HBG (dialysis membrane MWCO 100-500 Da; Spectra/Por®, Carl Roth, Karlsruhe, Germany) prior to application to remove small amounts of ethanol. […] The luciferase gene expression was determined as described above and is presented as relative light units (RLU) per gram (g) tumor/organ.
To evaluate luciferase mRNA delivery by an ex vivo luciferase gene expression assay, organ and tumor tissues were homogenized in Luciferase Cell Culture Lysis Reagent 1× (Promega, Mannheim, Germany), supplemented with 1% (v/v) protease and phosphatase inhibitor cocktail (Sigma-Aldrich, Munich, Germany) using a tissue and cell homogenizer (FastPrep®-24, MP Biomedicals, USA). […] Luciferase activity in 25 μL supernatant was measured in a Centro LB 960 plate reader luminometer (Berthold Technologies, Bad Wildbad, Germany) for 10 sec after addition of 100 μL/well of a LAR buffer solution (20 mM glycylglycine, 1.0 mM MgCl2, 0.10 mM EDTA, 3.3 mM DTT, 0.55 mM ATP, and 0.27 mM coenzyme A; pH 8-8.5) supplemented with 5% (v/v) of a mixture of 10 mM luciferin and 29 mM glycylglycine.

N2a cells [4] = assay: Luciferase expression assay of mRNA polyplexes in N2a cells; type: cell-based, murine
N2a cells [5] = assay: Co-delivery efficiency of mRNA/pDNA polyplexes by flow cytometry; type: cell-based, murine; conditions: N/P 18, 25 and 50 ng combined nucleic acid/well
Description: CleanCap® mCherry mRNA (5moU) (Trilink Biotechnologies, San Diego, CA, USA) and pEGFP-N1 pDNA (Clontech Laboratories, Inc. (now Takara Bio USA, Inc., San Jose, CA, USA)) at a fixed weight ratio of 1:1 were mixed and diluted in HBG. Calculated amounts of aminolipid at indicated N/P (nitrogen/phosphate) ratios (see above) were diluted in separate tubes of HBG. Equal volumes of nucleic acid solution and aminolipid solution were mixed by rapid pipetting and incubated 40 min at RT in a closed Eppendorf reaction tube. The final concentration of nucleic acid in the polyplex solution was 5 μg/mL (2.5 μg/mL mCherry mRNA plus 2.5 μg/mL pEGFP-N1 pDNA).
mRNA/pDNA polyplex treatments were performed in triplicate in 96-well plates. N2a cells were seeded 24 h prior to transfection (10,000 cells/well). On the next day, the medium was replaced with 80 μL of fresh pre-warmed medium containing 10% (v/v) FBS. The nanoparticles were prepared as described above, and the volumes of 10 and 5 μL of polyplex solution (2.5 μg/mL mCherry mRNA and 2.5 μg/mL pEGFP-N1 pDNA) were added. 20 μL HBG buffer per well was used as negative control. After 24 h of treatment, cells were collected and re-suspended in PBS solution containing 10% (v/v) FBS (FACS buffer) for flow cytometric evaluation. All samples were analyzed by flow cytometry using a CytoFLEX S Flow Cytometer (Beckman Coulter, Brea, CA, USA). Shortly before the measurement, 1 ng/μL 4′, 6-diamidino-2-phenylindole (DAPI) was added and used to discriminate between viable and dead cells. The cellular fluorescence was assayed by excitation of DAPI at 405 nm and detection of emission at 450 nm. Only isolated viable cells were evaluated. Gates were set compared to control measurements with HBG buffer-treated cells. […] Flow cytometry data were analyzed using FlowJo™ v10.8 flow cytometric analysis software by FlowJo, LLC (Becton, Dickinson and Company, U.S.). The cellular fluorescence expression was assayed by excitation at 561 nm and 488 nm, the detection of emission at 610 nm and 530 nm for mCherry and eGFP, respectively.

Huh7 cells = assay: Luciferase expression assay of pDNA polyplexes in Huh7 cells; type: cell-based, human
[6] = Cas9 mRNA/sgDMDex23 polyplexes, N/P 24, combined nucleic acid 12.5 μg/mL
[7] = mRNA LNPs, 12.5 μg/mL CleanCap FLuc mRNA (5moU), N/P 9, molar ratios see Table A
[8] = mRNA polyplexes, 12.5 μg/mL CleanCap FLuc mRNA (5moU), N/P 12 (1611, 1719, 1722, 1732), N/P 24 (1614), N/P 18 (1621, 1747)
[9] = pDNA polyplexes, N/P 12, 10 μg/mL pCMVLuc
[10] = Cas9 mRNA/sgGFP1 polyplexes, N/P 18, combined nucleic acid 5.0 μg/mL
[11] = PEGylated pDNA polyplexes 25% PEG, 10 μg/mL pCMVLuc
[12] = Targeted pDNA polyplexes 12.5% PEG 2k, 12.5% PEG-GE11, 10 μg/mL pCMVLuc
[13] = Unmodified pDNA polyplexes 0%, 10 μg/mL pCMVLuc
[14] = pDNA polyplexes, N/P 18, 10 μg/mL pCMVLuc

## K(12Oc)2-Stp2-K[K(12Oc)2] [compound 1717]
N2a cells [1]
  transfection efficiency (luciferase expression) of pDNA polyplexes: most potent pDNA carriers

## K(8Oc)2-Stp-K(8Oc)-K(8Oc) [compound 1620]
[2]; [6]
  Pdl: 0.130
  Z-average: 134.3 nm
  Zeta potential: 22.7 mV
[2]; [7]
  Pdl: 0.152
  Z-average: 271.1 nm
  Zeta potential: −1.41 mV

## [K(12Oc)]2-Stp-[K(12Oc)]2 [compound 1718]
[2]; [6]
  Pdl: 0.223
  Z-average: 107.5 nm
  Zeta potential: 36.0 mV
[2]; [7]
  Pdl: 0.140
  Z-average: 198.1 nm
  Zeta potential: 0.03 mV

## CCCCCCCCN(CCCCCCCC)CCCCCCCC(=O)NCCCC[C@H](NC(=O)CCCCCCCN(CCCCCCCC)CCCCCCCC)C(=O)NCCSSCCNC(=O)CCC(=O)NCCCC[C@H](NC(=O)CCC(=O)NCCSSCCNC(=O)[C@H](CCCCNC(=O)CCCCCCCN(CCCCCCCC)CCCCCCCC)NC(=O)CCCCCCCN(CCCCCCCC)CCCCCCCC)C(=O)NCCNCCNCCNCCNC(=O)CCC(=O)O [compound 1792, [(8Oc)2)-K-ssbb]2-K-Stp]
HeLa cells; mRNA polyplexes, 25% of the standard mRNA dose of 250 ng/well, vs 1621
  cell viability (relative metabolic activity, CellTiter Glo): significantly improved cell viability

## K(12Oc)-(^εK-^εK-6-Ahx)-K(12Oc) [compound 1747]
[2]; [8]
  Pdl: 0.146
  Z-average: 91.1 nm
  Zeta potential: 17.5 mV

## K(12Oc)2-Stp [compound 1614]
[2]; [8]
  Pdl: 0.223
  Z-average: 111.6 nm
  Zeta potential: 15.7 mV

## CCCCCCCCCCCCN(CCCCCCCCCCCC)CCCCCCCC(=O)NCCCC[C@H](NC(=O)CCC(=O)NCCNCCNCCNCCNC(=O)[C@@H](N)CCCCNC(=O)CCCCCCCN(CCCCCCCCCCCC)CCCCCCCCCCCC)C(=O)O [compound 1611, K(12Oc)-Stp-K(12Oc)]
[3]
  in vivo toxicity / tolerability of mRNA polyplexes: good tolerability

## K(12Oc)2-Stp2 [compound 1710]
[2]; [9]
  Pdl: 0.246 ± 0.024
  Z-average: 111.8 ± 11.4 nm
  Zeta potential: 15.6 ± 2.1 mV
N2a cells [1]
  dose dependence of pDNA transfection efficiency: good performance only at the highest dose

## K[K(12Oc)2]-Stp-K[K(12Oc)2] [compound 1720]
[2]; [7]
  Pdl: 0.196
  Z-average: 209.8 nm
  Zeta potential: 0.70 mV

## [K(12He)]2-Stp2-[K(12He)]2 [compound 1760]
[3]; tumors, lungs, liver, spleen
  in vivo luciferase expression of mRNA polyplexes: great in vivo performance

## Stp-K[K(12Oc)2]-Stp [compound 1715]
[2]; [9]
  Pdl: 0.100 ± 0.010
  Z-average: 89.8 ± 1.4 nm
  Zeta potential: 24.47 ± 1.4 mV
N2a cells [1]
  dose dependence of pDNA transfection efficiency: good performance only at the highest dose

## K(12Oc)2-Stp2-K(12Oc)-K(12Oc) [compound 1722]
[2]; [8]
  Pdl: 0.339
  Z-average: 92.5 nm
  Zeta potential: 44.4 mV
N2a cells [1]
  transfection efficiency (luciferase expression) of pDNA polyplexes: most potent pDNA carriers
N2a cells [4]; 24 h, dose titration 63, 31, 16 ng mRNA/well, vs succPEI and 1218
  transfection efficiency (luciferase expression) of mRNA polyplexes: dose-independent transfection efficiency

## K(12Oc)2-Stp-K(12Oc)-K(12Oc) [compound 1612]
[2]; [7]
  Pdl: 0.273
  Z-average: 275.8 nm
  Zeta potential: 1.88 mV

## K(12Bu)-Stp-K(12Bu) [compound 1763]
N2a cells [5]
  mCherry mRNA/eGFP pDNA co-expression (co-delivery efficiency): most potent structures

## [K(8Oc)]2-Stp2-[K(8Oc)]2 [compound 1745]
[2]; [10]
  Pdl: 0.266 ± 0.046
  Z-average: 99.4 ± 7.9 nm
  Zeta potential: 11.9 ± 1.6 mV

## K(8Oc)2-Stp2-K(8Oc)-K(8Oc) [compound 1731]
[2]; [6]
  Z-average: 67.5 nm
  Zeta potential: 37.5 mV

## K(DodOc)2-Stp2-K(DodOc)-K(DodOc) [compound 1725]
N2a cells [1]; N/P 12, 200 ng pCMVLuc/well
  transfection efficiency of pDNA polyplexes, DodOc (amide) control vs LAF analog: ineffective
N2a cells [4]; N/P 12, 62.5 ng mRNA/well
  transfection efficiency of mRNA polyplexes, DodOc (amide) control vs LAF analog: ineffective

## K(12He)-Stp-K(12He) [compound 1765]
N2a cells [5]
  mCherry mRNA/eGFP pDNA co-expression (co-delivery efficiency): most potent structures

## K[K2-K(12Oc)2]2 [compound 1851]
N2a cells [4]; 15 ng mRNA/well
  RLU values relative to Stp2 analog 1717: around 10 fold
N2a cells [4]; all tested N/P ratios, 50 and 15 ng mRNA/well
  transfection efficiency of mRNA polyplexes vs Stp2 analog 1717: outperformed its Stp2 analog

## CCCCCCCCN(CCCCCCCC)CCCCCCCC(=O)NCCCC[C@H](NC(=O)CCCCCCCN(CCCCCCCC)CCCCCCCC)C(=O)NCCSSCCNC(=O)CCC(=O)NCCCC[C@H](NC(=O)CCC(=O)NCCSSCCNC(=O)[C@H](CCCCNC(=O)CCCCCCCN(CCCCCCCC)CCCCCCCC)NC(=O)CCCCCCCN(CCCCCCCC)CCCCCCCC)C(=O)NCCNCCNCCNCCNC(=O)CCC(=O)NCCNCCNCCNCCNC(=O)CCC(=O)O [compound 1824, [(8Oc)2)-K-ssbb]2-K-Stp2]
HeLa cells
  toxicity (relative metabolic activity, CellTiter Glo): significantly less toxic

## CCCCCCCCCCCCN(CCCCCCCCCCCC)CCCCCCCC(=O)NCCSSCCNC(=O)CCC(=O)NCCCC[C@H](NC(=O)CCC(=O)NCCNCCNCCNCCNC(=O)[C@@H](N)CCCCNC(=O)CCC(=O)NCCSSCCNC(=O)CCCCCCCN(CCCCCCCCCCCC)CCCCCCCCCCCC)C(=O)O [compound 1821, K(ssbb-12Oc)-Stp-K(ssbb-12Oc)]
HeLa cells
  toxicity (relative metabolic activity, CellTiter Glo): significantly less toxic

## K[K[12Oc)2]2-Stp [compound 1613]
[2]; [7]
  Pdl: 0.159
  Z-average: 176.8 nm
  Zeta potential: −3.03 mV

## K[K[8Oc)2]2-Stp2 [compound 1730]
[2]; [11]
  Pdl: 0.22
  Size: 100
  Zeta: 2.0
[2]; [12]
  Pdl: 0.17
  Size: 125
  Zeta: 2.0
[2]; [13]
  Pdl: 0.21
  Size: 109
  Zeta: 15.9
[2]; [14]
  PDI: 0.10 ± 0.01
  Z-average: 95.3 ± 1.6 nm
  Zeta potential: 21.7 ± 0.6 mV
Huh7 cells; N/P 12, pDNA dose 50 ng/well
  RLU values of targeted polyplexes in comparison to shielded polyplexes: 32.8 fold
Huh7 cells; N/P 12, pDNA dose 100 ng/well
  RLU values of targeted polyplexes in comparison to shielded polyplexes: 25.5 fold
